Measurements reported in US20230173074A1, “BIOCOMPATIBLE MATERIAL AND METHODS FOR MAKING AND USING THE SAME” (PLERYON THERAPEUTICS (SHENZHEN) LIMITED, priority 2020, published 2023).
{3'dT} = capped with 3'-dT; {C6} = six-carbon (C6) cap; m = 2'-O-methyl; r = 2'-OH (RNA); f = 2'-fluoro

Assay: Release of aptamer from hydrogel (UV 260 nm)
Conditions: PBS, 37° C.
Excerpt: Hydrogel was formed similar to Example 5. An aptamer similar to Macugen of the following sequence of nucleotides and functional groups: CfGmGmAAUfCfAmGmUfGmAmAmUfGmCfUfUfAmUfAmCfAmUfCfCfGm3′(SEQ ID NO:1), with 5′ end caped with 6 carbon (C6) and 3′ end caped with a 3′-dT-S′ and Cy3 fluorescent dye, was used as an aptamer example. Gm or Am and Cf or Uf represent 2-methoxy and 2-fluoro variants of their respective purines and pyrimidines, and C, A, U and G code for cytidylic, adenylic, uridylic and guanylic acids. Hydrogels were formed similar to Example 5, except that the solution before gel formation was added to the API in powder form. The gel was incubated at 37° C. for 2 days before release experiment. For the release experiment, a small portion of gel (between […]) were transferred by a 3 mL disposable plastic pipettes into a 10 ml glass vial at ambient temperature, and the mass was measured for the final release calculation. The glass vial was slowly filled up with 5 ml of PBS solutions to minimize the disturbing of gel. The release was performed at 37° C. in triplicate. At each predetermined time point, 0.5 h, 1 h, 2 h, and 4 h in this case, the sample was gently shake for 10 s and sit at ambient temperature for 10 min before 1000 μl of releasing buffer were taken for UV quantification at 260 nm. The experiments were performed in triplicate.

aptamer: modified RNA aptamer similar to Macugen (SEQ ID NO:1), 5′ C6 cap, 3′-dT and Cy3 dye (CGGAAUCAGUGAAUGCUUAUACAUCCG; sugars from the 5' end fmmrrffmmfmmmfmfffmfmfmfffm, 5' {C6}, 3' {3'dT}, backbone not given here; Cy3 fluorescent dye attached, further chemistry not fully specified)
duration of release from hydrogel (hydrogel Ap1 (FIG. 21)): about 4 hours
duration of release from hydrogel (hydrogel Ap2 (FIG. 22)): about 4 hours
